Reference: patent publication US5922759A, “Butenolide endothelin antagonists” (Warner-Lambert Company, priority 1997, dated 1999)
Read-outs that look alike come from different tables or passages of the source. Where a SMILES comes first, the peptide text is derived from it. Where no end group is shown, it is not given here. [ ]: non-standard residue; d: D form.

Columns and labels:
ETA = details: mouse endotoxic shock; cited from earlier work
cerebral vasospasm [1] = details: rabbit; cited from earlier work
cerebral vasospasm [2] = details: rat, cited from earlier work
[3] = molecular target: T1, ETA (rabbit femoral artery) (Oryctolagus cuniculus, UniProt A5A8K3); assay: Antagonism of ET-1 stimulated vasoconstriction (VERA-A) in the rabbit femoral artery; details: ET-1 agonist, antagonist added 30 minutes prior
T1 construct: Femoral and pulmonary arteries were isolated, cleaned of connective tissue, and cut into 4-mm rings; from tissue; host or cells: endothelium-denuded femoral artery rings of male New Zealand rabbits
T1 sequence (A5A8K3 21-427): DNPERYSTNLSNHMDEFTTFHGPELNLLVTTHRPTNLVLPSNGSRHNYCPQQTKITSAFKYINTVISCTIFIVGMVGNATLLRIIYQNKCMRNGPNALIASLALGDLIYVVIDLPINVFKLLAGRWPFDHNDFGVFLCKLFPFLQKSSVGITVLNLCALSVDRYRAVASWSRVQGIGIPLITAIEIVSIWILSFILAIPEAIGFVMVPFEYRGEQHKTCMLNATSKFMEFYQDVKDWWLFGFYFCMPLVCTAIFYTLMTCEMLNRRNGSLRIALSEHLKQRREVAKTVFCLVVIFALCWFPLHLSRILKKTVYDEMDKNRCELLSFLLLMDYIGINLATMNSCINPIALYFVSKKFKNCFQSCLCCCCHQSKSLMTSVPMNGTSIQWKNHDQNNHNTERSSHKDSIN
Description: Male New Zealand rabbits were killed by cervical dislocation and exsanguination. Femoral and pulmonary arteries were isolated, cleaned of connective tissue, and cut into 4-mm rings. The endothelium was denuded by placing the rings over hypodermic tubing (32 gauge for femoral rings and 28 gauge for pulmonary rings, Small Parts, Inc, Miami, Fla.) and gently rolling them. […] Resting tension was adjusted to 3.0 g for femoral and 4.0 g pulmonary arteries; the rings were left for 90 minutes to equilibrate.

endothelin receptor ETA = molecular target: T2, endothelin receptor ETA (Homo sapiens, UniProt P25101); format: binding; details: Human cloned receptor data (footnote c); read-out: ERBA-A IC50
T2 sequence (P25101 21-427): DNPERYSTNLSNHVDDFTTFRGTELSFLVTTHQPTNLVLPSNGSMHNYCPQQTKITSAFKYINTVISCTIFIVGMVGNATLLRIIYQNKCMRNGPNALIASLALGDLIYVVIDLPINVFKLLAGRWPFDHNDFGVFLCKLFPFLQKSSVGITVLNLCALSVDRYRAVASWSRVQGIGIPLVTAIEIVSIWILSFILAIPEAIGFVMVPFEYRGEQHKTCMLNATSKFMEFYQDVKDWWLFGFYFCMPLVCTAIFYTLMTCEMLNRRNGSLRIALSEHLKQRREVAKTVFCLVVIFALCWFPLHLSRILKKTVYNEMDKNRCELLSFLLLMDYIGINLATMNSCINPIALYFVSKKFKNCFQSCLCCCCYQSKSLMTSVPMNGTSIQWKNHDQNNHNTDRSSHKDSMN

human ETB receptor = molecular target: T3, human ETB receptor (Homo sapiens, UniProt P24530); format: binding, human (method text also: rat cerebellar membranes); details: Human cloned receptor data (footnote c); read-out: ERBA-B IC50
T3 construct: expressed in transfected cells; host or cells: CHO-K1
T3 sequence (P24530 27-442): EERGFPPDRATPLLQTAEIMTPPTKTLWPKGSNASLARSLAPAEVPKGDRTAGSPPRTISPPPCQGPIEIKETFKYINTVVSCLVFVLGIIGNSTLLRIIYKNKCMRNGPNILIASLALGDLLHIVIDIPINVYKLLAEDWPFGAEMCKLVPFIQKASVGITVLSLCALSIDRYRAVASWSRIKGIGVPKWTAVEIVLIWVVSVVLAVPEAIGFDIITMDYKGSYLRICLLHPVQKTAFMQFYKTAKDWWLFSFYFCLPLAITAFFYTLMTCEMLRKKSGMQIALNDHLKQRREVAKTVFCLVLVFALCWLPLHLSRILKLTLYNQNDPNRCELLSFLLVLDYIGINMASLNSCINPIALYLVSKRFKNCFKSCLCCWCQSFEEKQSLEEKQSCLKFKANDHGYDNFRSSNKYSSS
Excerpt: The compounds of Formula I are valuable antagonists of endothelin.
ENDOTHELIN RECEPTOR BINDING ASSAY-B (ERBA-B) [^125 I]-ET-1 BINDING IN RAT CEREBELLAR MEMBRANES
materials and Terms Used:
Count filters for radioactivity in gamma counter.
The above process has also been modified by using human recombinant CHO-K1 cells.
The tissue used for human ETB was recombinant human ETB receptor expressed in CHO-K1 cells (chinese hamster ovary cells). The gene for human ETB receptor was cloned and inserted into the pRc-CMW expression vector, then transfected into CHO-K1 cells by electroporation. For binding assays, membranes (0.7 mg protein) of CHO-K1 cells expressing recombinant human ETB receptor were used.
^c Human cloned receptor data

central nervous system = details: intracerebroventricular, rats; cited from earlier work
brain = details: new model of local ischemia in the brain; cited from earlier work
[4] = tested on: basilar artery vasoconstriction; details: canine two-hemorrhage model, after 7 days; cited from earlier work

In the case of `CC(C)C[C@@H]1NC(=O)[C@@H](C(C)C)NC(=O)[C@@H]2CCCN2C(=O)[C@@H](CC(=O)O)NC(=O)[C@@H](Cc2c[nH]c3ccccc23)NC1=O` [BQ-123] (cyclo(L[dW][dD]P[dV])), the survival rate (ETA) is listed as “significantly increased the survival rate”, the “effect on early cerebral vasospasm following SAH” value (cerebral vasospasm [1]) is listed as “prevents early cerebral vasospasm” and the “effect on early cerebral vasospasm following SAH” value (cerebral vasospasm [2]) is listed as “prevents early cerebral vasospasm”.

With `COc1ccc(C2(OC(=O)N[C@@H](C)c3ccccc3)OC(=O)C(c3ccc4c(c3)OCO4)=C2Cc2ccccc2)cc1` (stereo partly shown) [Example 1, (1-Phenyl-ethyl)-carbamic acid-4-benzo[1,3]dioxol-5-yl-3-benzyl-2-(4-methoxy-phenyl)-5-oxo-2,5-dihydro-furan-2-yl ester] the “VERA-A pA2” value [3] was 6.1.

`COc1ccc(C2(OC(=O)N[C@@H](C)c3cccc4ccccc34)OC(=O)C(c3ccc4c(c3)OCO4)=C2Cc2cc(OC)c(OC)c(OC)c2)cc1` (stereo partly shown) [Example 2, (1-Naphthalen-1-yl-ethyl)-carbamic acid-4-benzo[1,3]dioxol-5-yl-2-(4-methoxy-phenyl)-5-oxo-3-(3,4,5-trimethoxy-benzyl)-2,5-dihydro-furan-2-yl ester] showed an IC50 (endothelin receptor ETA) of 1 nM.

Molecule `CCOC(=O)CNC(=O)OC1(c2ccc(OC)cc2)OC(=O)C(c2ccc3c(c2)OCO3)=C1Cc1cc(OC)c(OC)c(OC)c1` (stereo not shown) [Example 3, [4-Ben zo[1.3]dioxol-5-yl-2-(4-methoxy-phenyl)-5-oxo-3-(3,4,5-trimethoxy-benzyl)-2,5-dihydro-furan-2-yloxycarbonylamino]-acetic acid ethyl ester] has an IC50 (human ETB receptor) of 1800 nM, a Kb ([3]; read-out: VERA-A pA2 (converted)) of 50.1 nM and an IC50 (endothelin receptor ETA) of 0.35 nM.

For `COc1cccc(Oc2c(NS(=O)(=O)c3ccc(C(C)(C)C)cc3)ncnc2OCCO)c1` [Ro 46-2005], the “effect on systemic arterial blood pressure” value (cerebral vasospasm [2]; SAH) is listed as “no significant effect on systemic arterial blood pressure” and the “effect on early cerebral vasospasm following SAH” value (cerebral vasospasm [2]) is listed as “prevent early cerebral vasospasm”.

In the case of “ET-1: a potent vasoconstrictor, is a 21 amino acid bicyclic peptide (CSCSSLMDKECVYFCHLDIIW; ends and bridges not checked; also: bicyclic peptide; UniProt P05305 53-73, looked up)”, the behavioral effects (central nervous system) is listed as “evoke several behavioral effects” and the lesion development (brain) is listed as “induced lesion development”.

For FR 139317, the “inhibition of vasoconstriction of the basilar artery” value [4] is listed as “significantly inhibited the vasoconstriction of the basilar artery after 7 days”.
